Assays:
[1] = system: depression-like behavior of mice; experiment: tail suspension test; format: in vivo; settings: amlodipine experiment: single compound vs PBS, ostruthin 5 mg/kg or amlodipine 10 mg/kg, n = 9 and 13
Text: (§1) Male ICR mice (n = 317 in total) aged 5 weeks and weighing 32 ± 2 g were purchased from Shimizu Laboratory Supplies (Kyoto, Japan). For the social defeat stress test, we used 28 C57BL/6J mice (5 weeks old, Shimizu Laboratory Supplies) and 30 ICR mice (7–8 weeks old, Charles River Labs Japan, Yokohama, Kanagawa, Japan). Mice were maintained for at least 1 week prior to experiments. Animals were kept in groups in plastic cages. They had free access to food and water, and were kept in a 12-h light/dark cycle (08:00–20:00). Experiments were carried out between 10:00 and 18:00 in a quiet and air-conditioned experimental room, in which mice were habituated for at least 30 min before each experiment. Animal experiments were performed in accordance with the guidelines of the Physiological Society of Japan and were approved by the Committees on Animal Experiments at Kansai Medical University and the Kurashiki University of Science and the Arts. Ostruthin was initially dissolved in DMSO at higher concentration (100 mM) and then diluted in phosphate-buffered saline (PBS). The diluted solution was mixed vigorously for more than 10 min before the experiments, and an equal volume of DMSO was added to PBS as a control. PBS and ostruthin were administered intraperitoneally 30 min before mice behavioral tests (0.01 ml/g body weight). Each animal was used only once, except for the wheel running test, which was carried out immediately after elevated plus maze.
The tail suspension test was performed in accordance with a method reported previously. The mouse was hung on a hook using adhesive tape placed 2 cm from the extremity of its tail 50 cm above the table. The amount of time spent immobile was recorded for 5 min.

[2] = system: mice anxiety-like behavior; experiment: elevated plus maze; format: in vivo; settings: amlodipine experiment: single compound vs PBS, ostruthin 5 mg/kg or amlodipine 10 mg/kg, n = 6
Text: as §1
The elevated plus maze apparatus consisted of four arms set in a cross pattern from a neutral central square (6 × 6 cm). Two opposite arms were delimited by vertical walls (closed arms, 30 × 15 × 6 cm), whereas the other two arms had unprotected edges (open arms, 30 × 6 cm). The maze was elevated 40 cm above the floor. At the beginning of each 5 min test session, a mouse was placed in the central neutral area, facing one of the open arms. The total number of the entries to open arms and time spent in the open arms were measured. After removal of the animal, the apparatus was cleaned and wiped.

TREK-2 channel [3] = biological target: T1, TREK-2 channel (Homo sapiens, UniProt P57789); set-up: method as in PMID 10880510; settings: 100 μM; cited from earlier work
T1 construct: expressed in transfected cells; host or cells: 293T (transient, calcium-phosphate transfection)
T1 sequence (P57789 1-538): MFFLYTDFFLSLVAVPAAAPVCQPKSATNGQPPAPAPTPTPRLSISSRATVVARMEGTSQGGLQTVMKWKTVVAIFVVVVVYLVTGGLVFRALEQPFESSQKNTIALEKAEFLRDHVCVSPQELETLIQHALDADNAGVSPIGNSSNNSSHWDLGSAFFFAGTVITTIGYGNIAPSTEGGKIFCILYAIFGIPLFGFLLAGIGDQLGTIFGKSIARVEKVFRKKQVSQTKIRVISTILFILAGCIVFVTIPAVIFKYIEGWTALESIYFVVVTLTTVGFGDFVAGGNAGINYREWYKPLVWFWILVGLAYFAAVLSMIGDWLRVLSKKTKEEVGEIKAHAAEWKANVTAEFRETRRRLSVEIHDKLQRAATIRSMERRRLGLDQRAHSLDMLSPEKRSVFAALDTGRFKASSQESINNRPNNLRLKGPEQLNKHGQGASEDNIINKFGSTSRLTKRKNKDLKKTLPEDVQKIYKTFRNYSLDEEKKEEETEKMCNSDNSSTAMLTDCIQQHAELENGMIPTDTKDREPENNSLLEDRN

TREK-1 channel = biological target: T2, TREK-1 channel (Homo sapiens, UniProt O95069); experiment: whole-cell patch-clamp of TREK-1 currents in TR-1 cells (293T stably expressing TREK-1); format: cell-based; settings: bupivacaine 3 mM, after 100 μM ostruthin
T2 construct: expressed in transfected cells
T2 sequence (O95069 1-426): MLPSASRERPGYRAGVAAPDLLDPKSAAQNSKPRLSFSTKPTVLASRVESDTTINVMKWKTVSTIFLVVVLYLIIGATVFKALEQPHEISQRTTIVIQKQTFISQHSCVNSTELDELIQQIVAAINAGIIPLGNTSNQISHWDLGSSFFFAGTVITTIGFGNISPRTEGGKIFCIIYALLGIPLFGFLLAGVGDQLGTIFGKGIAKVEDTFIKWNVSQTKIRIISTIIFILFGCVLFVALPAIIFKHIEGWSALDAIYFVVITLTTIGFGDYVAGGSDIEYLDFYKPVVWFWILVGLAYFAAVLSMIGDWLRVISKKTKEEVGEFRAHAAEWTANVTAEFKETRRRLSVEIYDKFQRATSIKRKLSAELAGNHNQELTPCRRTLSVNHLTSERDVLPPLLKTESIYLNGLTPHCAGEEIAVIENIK
Text: (§2) For recordings of K^+ channel currents, we prepared stable cell lines for TREK-1, TWIK-related acid-sensitive K^+ channel (TASK-1), strongly inwardly rectifying K^+ channel (Kir2.1), and human ether-a-go-go-related gene (HERG-1) channels and transiently expressed other channels in 293T cells using a calcium-phosphate transfection method. For the establishment of the stable lines, we used lentiviral vectors, and the preparation methods for the lentiviral vectors were described in our previous report. TR-1 cells, which stably expressed TREK-1 channel and were grown on a small cover glass (3 × 18 mm), were placed in a recording chamber with an internal volume of 200 μl. Whole-cell currents were recorded in Tyrode solution using an Axopatch 200B amplifier (Axon Instruments, Foster City, CA) at 25°C. […] Perfusion (100 μl/min) was continued to maintain the water level throughout recordings. pH and osmotic pressure of solutions were measured with a pH meter (Horiba, Kyoto, Japan) and a freezing point osmometer (Knauer, Berlin, Germany), respectively.
We previously prepared a lentiviral vector that expressed the TREK-1 channel and using this vector we established a cell line, TR-1, which stably expressed the channel. […] Immediately after whole-cell access, small outward currents were recorded in response to depolarizing step pulses (Fig 1A, 0 min). […]

TREK-2 channel [4] = biological target: T1, TREK-2 channel; experiment: whole-cell patch-clamp of TREK-2 currents transiently expressed in 293T cells; format: cell-based; settings: bupivacaine 3 mM, after ostruthin
Text: as §2
TREK-1 channels are known to be activated by low pH and mechanical stretch. […] To test these possibilities, we measured the pH of Tyrode solution before and after addition of 100 μM ostruthin, and observed no significant change (from 7.31 ± 0.17 to 7.33 ± 0.22, p = 0.645, paired t-test, n = 6). […]

inhibition of the ostruthin-increased TREK-1 current (TREK-1 channel)	block of TREK-2 current (TREK-2 channel [4])	Compound	time spent immobile [1]	number of entries to the open arm [2]	sensitivity of TREK-2 channel to bupivacaine (TREK-2 channel [3])
–	–	CCOC(=O)C1=C(COCCN)NC(C)=C(C(=O)OC)C1c1ccccc1Cl (centres unmarked) [amlodipine, reference compound]	non-significantly decreased	non-significantly decreased	–
inhibited nearly completely	almost blocked the current	CCCCN1CCCCC1C(=O)Nc1c(C)cccc1C (centres unmarked) [bupivacaine, reference compound]	–	–	insensitive

Source: paper PMC6093650, “Antidepressive and anxiolytic effects of ostruthin, a TREK-1 channel activator” (PLoS ONE, 2018)
